{
  "source": "patent US20240246933A1",
  "about": "“CRYSTALLINE FORM OF TRICYCLIC DERIVATIVE COMPOUND, METHOD FOR PREPARING SAME, AND PHARMACEUTICAL COMPOSITION COMPRISING SAME” (ONCONIC THERAPEUTICS INC., priority 2021, published 2024)",
  "key": {"[1]": {"experiment": "Measurement of solubility in water (shake-flask, UPLC)", "assay_type": "physicochemical", "procedure": "Compounds are dissolved in DMSO and measured by UPLC, and then a calibration curve is drawn. The compounds saturated by the Shake-flask method are filtered and then measured by UPLC, and it is substituted into a calibration curve to calculate the concentration."}, "[2]": {"experiment": "Stability of the addition salt of Compound 1 (temperature, humidity, light; purity by HPLC)", "assay_type": "physicochemical", "procedure": "The stability of crystals of the addition salt of Compound 1 prepared in the Examples and Comparative Examples above was confirmed, and the results are shown in Table 5 below.\nExperiments according to temperature, humidity and light conditions were carried out by a method of confirming purity by HPLC after storage in a stability chamber under each condition.\nEach sample was spread thinly in a Petri dish, and then the stability was evaluated after irradiation with UV light having a light intensity of 35 W to a total irradiation amount of 200 watts under conditions of 25° C. and 60% humidity using a photostability test chamber (CARON 6542-2).\nEach sample was spread thinly in a Petri dish, and then the stability was evaluated after irradiation with visible light having a light intensity of 35 k Lux to a total irradiation amount of 1200 k lux under conditions of 25° C. and 60% humidity using a photostability test chamber (CARON 6542-2)."}, "[3]": {"experiment": "Measurement of solubility in various solvents", "assay_type": "physicochemical", "conditions": "0.1 g of sample, 15 to 25° C., within 30 minutes, listed as Crystalline anhydride of citrate in Example 2", "procedure": "Specifically, 0.1 g of sample was accurately weighed, put into each solvent, and shaken and mixed vigorously for 30 seconds every 5 minutes at 15 to 25° C., and the amount dissolved within 30 minutes was measured."}, "[4]": {"experiment": "Purity and stability under accelerated and long-term storage conditions (HPLC)", "assay_type": "physicochemical", "conditions": "for Purity under long-term storage conditions (area %) / Long-term storage conditions (related substances) (area %): 25±2° C., humidity 60±5%; for Purity under accelerated storage conditions (area %) / Accelerated storage conditions (related substances) (area %): 40±2° C., humidity 75±5%", "procedure": "The purity and stability of the crystalline anhydride of the citrate prepared in Example 2 and the crystalline monohydrate of the citrate prepared in Example 3 according to the present invention were evaluated, and the results are shown in Tables 8 and 9 below.\nIn the tables below, stability tests were conducted under accelerated storage conditions of a temperature of 40±2° C. and humidity of 75±5%, and purity and stability tests were conducted under long-term storage conditions of a temperature of 25±2° C. and humidity of 60±5%. Experimental results were measured under the same conditions as in Experimental Example 1 using HPLC (product name: agilent 1290, manufacturer: Agilent)."}, "tankyrase-2 enzyme": {"target": "T1, tankyrase-2 enzyme (Homo sapiens, UniProt Q9H2K2)", "T1 construct": "purchased BPS Bioscience 80578", "T1 sequence (Q9H2K2 849-1166)": "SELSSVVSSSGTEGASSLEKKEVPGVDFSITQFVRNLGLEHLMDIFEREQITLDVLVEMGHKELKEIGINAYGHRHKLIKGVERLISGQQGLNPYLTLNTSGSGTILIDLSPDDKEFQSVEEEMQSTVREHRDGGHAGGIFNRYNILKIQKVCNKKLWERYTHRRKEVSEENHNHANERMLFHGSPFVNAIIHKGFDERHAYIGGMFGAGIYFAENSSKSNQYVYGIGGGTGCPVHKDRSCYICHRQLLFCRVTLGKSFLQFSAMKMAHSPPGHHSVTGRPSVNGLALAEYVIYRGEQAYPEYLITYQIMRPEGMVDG", "experiment": "Inhibition test of tankyrase-2 enzyme (BPS Bioscience kit)", "assay_type": "biochemical", "conditions": "tankyrase-2 enzyme 15 ng/well, 25° C. for 1 hour; read-out: IC50 (tankyrase-2 enzyme inhibitory activity)", "experimental": "(§1) Histones were coated on a 96-well plate provided from BPS Bioscience's kit and left at 4 °C for 16 hours. […] After 1 hour, each well was washed 4 times with PBST, and streptavidin-linked peroxidase (Strep-HRP, 1:50 dilution) was added thereto to measure the amount of ribosylation by PARP enzyme, and reacted at 25° C. for 30 minutes. The plate was washed 4 times with PBST, and then HRP chemiluminescent substrate was finally added thereto and reacted. The amount of histone ribosylation formed by each enzyme was quantified using a Synergy™ H4 Hybrid Multi-Mode Microplate Reader (BioTek Instruments, Inc., US (A))."}, "tankyrase-1 enzyme": {"target": "tankyrase-1 enzyme (Homo sapiens, UniProt O95271)", "sequence (O95271 1001-1327)": "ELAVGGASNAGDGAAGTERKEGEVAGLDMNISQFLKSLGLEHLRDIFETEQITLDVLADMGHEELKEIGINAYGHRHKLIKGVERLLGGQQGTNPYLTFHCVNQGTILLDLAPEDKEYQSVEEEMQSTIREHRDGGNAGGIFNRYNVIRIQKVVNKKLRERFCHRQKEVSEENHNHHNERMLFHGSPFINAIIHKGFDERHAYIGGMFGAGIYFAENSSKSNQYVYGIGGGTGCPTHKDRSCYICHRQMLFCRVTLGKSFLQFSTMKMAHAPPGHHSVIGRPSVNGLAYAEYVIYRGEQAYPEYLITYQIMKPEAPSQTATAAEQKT", "experiment": "biochemical", "experimental": "as §1"}, "PARP-1 enzyme": {"target": "PARP-1 enzyme (Homo sapiens, UniProt P09874)", "sequence (P09874 whole entry)": "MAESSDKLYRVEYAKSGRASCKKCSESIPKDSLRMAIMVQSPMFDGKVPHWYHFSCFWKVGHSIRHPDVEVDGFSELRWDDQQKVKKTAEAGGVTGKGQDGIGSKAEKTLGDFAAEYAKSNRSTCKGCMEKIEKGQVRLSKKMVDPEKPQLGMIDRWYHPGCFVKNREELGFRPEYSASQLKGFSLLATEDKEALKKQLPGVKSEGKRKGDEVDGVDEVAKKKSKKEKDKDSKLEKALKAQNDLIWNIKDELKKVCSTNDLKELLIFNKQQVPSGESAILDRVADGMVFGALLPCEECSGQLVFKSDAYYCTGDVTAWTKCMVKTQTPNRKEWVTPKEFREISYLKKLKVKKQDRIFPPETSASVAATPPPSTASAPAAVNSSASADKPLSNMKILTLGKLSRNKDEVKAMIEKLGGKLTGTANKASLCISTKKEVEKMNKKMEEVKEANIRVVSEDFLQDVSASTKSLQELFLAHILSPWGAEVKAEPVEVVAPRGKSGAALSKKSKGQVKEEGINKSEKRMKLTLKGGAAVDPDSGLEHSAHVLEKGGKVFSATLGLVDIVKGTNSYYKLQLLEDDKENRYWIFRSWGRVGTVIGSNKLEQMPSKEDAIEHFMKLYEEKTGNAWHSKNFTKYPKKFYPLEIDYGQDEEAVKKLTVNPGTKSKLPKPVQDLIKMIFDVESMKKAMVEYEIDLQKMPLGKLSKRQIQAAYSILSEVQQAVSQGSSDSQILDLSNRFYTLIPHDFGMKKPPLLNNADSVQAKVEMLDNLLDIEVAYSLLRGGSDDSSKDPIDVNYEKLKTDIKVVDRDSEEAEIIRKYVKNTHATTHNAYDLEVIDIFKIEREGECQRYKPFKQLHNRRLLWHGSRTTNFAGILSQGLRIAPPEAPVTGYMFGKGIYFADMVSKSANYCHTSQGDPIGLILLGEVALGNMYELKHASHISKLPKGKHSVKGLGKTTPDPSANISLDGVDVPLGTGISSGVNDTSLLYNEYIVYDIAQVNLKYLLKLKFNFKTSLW", "experiment": "Inhibition test of poly (ADP-ribose) polymerase [PARP-1] enzyme (BPS Bioscience kit)", "experimental": "Histones were coated on a 96-well plate provided from BPS Bioscience's kit and left at 4° C. for 16 hours. […] After 1 hour, each well was washed 4 times with PBST, and streptavidin-linked peroxidase (Strep-HRP, 1:50 dilution) was added thereto to measure the amount of ribosylation by PARP enzyme, and reacted at 25° C. for 30 minutes. The plate was washed 4 times with PBST, and then HRP chemiluminescent substrate was finally added thereto and reacted. The amount of histone ribosylation formed by each enzyme was quantified using a Synergy™ H4 Hybrid Multi-Mode Microplate Reader (BioTek Instruments, Inc., US (A))."}, "[5]": {"conditions": "3 months, listed as Crystalline anhydride of citrate in Example 2"}, "[6]": {"conditions": "6 months, listed as Crystalline anhydride of citrate in Example 2"}, "[7]": {"conditions": "initial, listed as Crystalline anhydride of citrate in Example 2"}},
  "note": "Where a name gives a salt, the structure may show the parent alone.",
  "data": [
    {"smiles": "N#Cc1ccc(N2CCN(Cc3ccc4c5c(c(=O)[nH]c4c3)CCCN5)CC2)nc1", "note": "[Example 2, Citrate Anhydride of 6-{4-[(5-oxo-1,2,3,4,5,6-hexahydrobenzo[h][1,6]naphthyridin-8-yl)methyl]piperazine-1-yl}nicotinonitrile]", "values": [
      {"measurement": "Solubility in water (in words)", "setting": "[1]; compared to other salts", "value": "remarkably excellent solubility in water"},
      {"measurement": "Water solubility", "setting": "[1]; water, shake-flask shaken for 24 hours, UPLC, listed as Crystalline anhydride of citrate of Compound 1", "value": 1067, "unit": "µM"},
      {"measurement": "Purity (%)", "setting": "[2]; Humidity of 75%, 3 days", "value": 97.81, "unit": "%"},
      {"measurement": "Purity (%)", "setting": "[2]; Initial value", "value": 97.97, "unit": "%"},
      {"measurement": "Purity (%)", "setting": "[2]; Temperature of 40° C., humidity of 70%, 3 days", "value": 97.79, "unit": "%"},
      {"measurement": "Purity (%)", "setting": "[2]; Temperature of 50° C., 3 days", "value": 97.86, "unit": "%"},
      {"measurement": "Purity (%)", "setting": "[2]; UV 200 watt - dark", "value": 98.38, "unit": "%"},
      {"measurement": "Purity (%)", "setting": "[2]; UV 200 watt, 25° C. and 60% humidity", "value": 96.94, "unit": "%"},
      {"measurement": "Purity (%)", "setting": "[2]; Visible 1200k lux - dark", "value": 98.39, "unit": "%"},
      {"measurement": "Purity (%)", "setting": "[2]; Visible 1200k lux, 25° C. and 60% humidity", "value": 96.73, "unit": "%"},
      {"measurement": "Stability in the temperature and humidity (in words)", "setting": "[2]; temperature and humidity conditions of Table 5", "value": "stable"},
      {"measurement": "Solubility (0.1 g/mL)", "setting": "[3]; Aqueous HCl solution (pH 1.1)", "value": "≤ 100", "unit": "mL"},
      {"measurement": "Solubility (0.1 g/mL)", "setting": "[3]; DMF", "value": 8, "unit": "mL"},
      {"measurement": "Solubility (0.1 g/mL)", "setting": "[3]; EtOH", "value": "≥ 1000", "unit": "mL"},
      {"measurement": "Solubility (0.1 g/mL)", "setting": "[3]; MeOH", "value": "≥ 100", "unit": "mL"},
      {"measurement": "Solubility (0.1 g/mL)", "setting": "[3]; Water", "value": "≤ 1000", "unit": "mL"},
      {"measurement": "Purity under long-term storage conditions (area %)", "setting": "[4]; 1 month", "value": 99.64, "unit": "%"},
      {"measurement": "Purity under long-term storage conditions (area %)", "setting": "[4]; 3 months", "value": 99.66, "unit": "%"},
      {"measurement": "Long-term storage conditions (related substances) (area %)", "setting": "[4]; [5]", "value": 0.28, "unit": "%"},
      {"measurement": "Purity under long-term storage conditions (area %)", "setting": "[4]; 6 months", "value": 99.58, "unit": "%"},
      {"measurement": "Long-term storage conditions (related substances) (area %)", "setting": "[4]; [6]", "value": 0.29, "unit": "%"},
      {"measurement": "Long-term storage conditions (related substances) (area %)", "setting": "[4]; 9 months", "value": 0.31, "unit": "%"},
      {"measurement": "Purity under long-term storage conditions (area %)", "setting": "[4]; 9 months", "value": 99.67, "unit": "%"},
      {"measurement": "Long-term storage conditions (related substances) (area %)", "setting": "[4]; 12 months", "value": 0.29, "unit": "%"},
      {"measurement": "Purity under long-term storage conditions (area %)", "setting": "[4]; 12 months", "value": 99.72, "unit": "%"},
      {"measurement": "Long-term storage conditions (related substances) (area %)", "setting": "[4]; 18 months", "value": 0.33, "unit": "%"},
      {"measurement": "Purity under long-term storage conditions (area %)", "setting": "[4]; 18 months", "value": 99.73, "unit": "%"},
      {"measurement": "Long-term storage conditions (related substances) (area %)", "setting": "[4]; 24 months", "value": 0.34, "unit": "%"},
      {"measurement": "Purity under long-term storage conditions (area %)", "setting": "[4]; 24 months", "value": 99.74, "unit": "%"},
      {"measurement": "Long-term storage conditions (related substances) (area %)", "setting": "[4]; 30 months", "value": 0.34, "unit": "%"},
      {"measurement": "Long-term storage conditions (related substances) (area %)", "setting": "[4]; 36 months", "value": 0.30, "unit": "%"},
      {"measurement": "Purity under long-term storage conditions (area %)", "setting": "[4]; 36 months", "value": 99.73, "unit": "%"},
      {"measurement": "Purity under long-term storage conditions (area %)", "setting": "[4]; initial", "value": 99.66, "unit": "%"},
      {"measurement": "Long-term storage conditions (related substances) (area %)", "setting": "[4]; [7]", "value": 0.26, "unit": "%"},
      {"measurement": "Purity under accelerated storage conditions (area %)", "setting": "[4]; 1 month", "value": 99.64, "unit": "%"},
      {"measurement": "Purity under accelerated storage conditions (area %)", "setting": "[4]; 3 months", "value": 99.65, "unit": "%"},
      {"measurement": "Accelerated storage conditions (related substances) (area %)", "setting": "[4]; [5]", "value": 0.24, "unit": "%"},
      {"measurement": "Purity under accelerated storage conditions (area %)", "setting": "[4]; 6 months", "value": 99.54, "unit": "%"},
      {"measurement": "Accelerated storage conditions (related substances) (area %)", "setting": "[4]; [6]", "value": 0.28, "unit": "%"},
      {"measurement": "Purity under accelerated storage conditions (area %)", "setting": "[4]; initial", "value": 99.66, "unit": "%"},
      {"measurement": "Accelerated storage conditions (related substances) (area %)", "setting": "[4]; [7]", "value": 0.26, "unit": "%"},
      {"measurement": "IC50", "setting": "tankyrase-2 enzyme", "value": 1.06, "unit": "nM"},
      {"measurement": "IC50", "setting": "tankyrase-1 enzyme", "value": 4.31, "unit": "nM"},
      {"measurement": "IC50", "setting": "PARP-1 enzyme", "value": 2.62, "unit": "nM"}
    ]}
  ]
}
